# According to ChEMBL document CHEMBL3885861, “Open TG-GATES”:
# Species on record: Rattus norvegicus
# Experiment: Open TG-GATES - Regimen: Single
# Type: toxicity, organism-based, Sprague-Dawley
# Design: regimen Single, gender Male, age 6 weeks
# Conditions: in vivo, po, 50 mg/kg, route gavage, dose level Low; for APTT / Bas / Eos / Fbg / Hb / Ht / Lym / MCH / MCHC / MCV / Mono / Neu / PT / Plat / RBC / Ret / WBC: tissue Blood; for KIDNEY_L / KIDNEY_R / KIDNEY_TOTAL: tissue Kidney; for LIVER: tissue Liver; for A/G / ALP / ALT / AST / BUN / CRE / Ca / Cl / DBIL / GLC / IP / K / LDH / Na / PL / RALB / TBIL / TC / TG / TP / gamma-GTP: tissue Plasma
compound,measurement,setting,value
CC(=O)Oc1cc(C(C)C)c(OCCN(C)C)cc1C [MOXISYLYTE],TERMINAL_BW,3 h,210.1 g
same,APTT,3 h,21.8 s
same,Bas,3 h,0%
same,Eos,3 h,1.2%
same,Fbg,3 h,298.6 mg/dL
same,Hb,3 h,13.1 g/dL
same,Ht,3 h,38.6%
same,Lym,3 h,80%
same,MCH,3 h,21 pg
same,MCHC,3 h,34%
same,MCV,3 h,61.9 fL
same,Mono,3 h,2.4%
same,Neu,3 h,15.8%
same,PT,3 h,16.3 s
same,Plat,3 h,122 x10_4/uL
same,RBC,3 h,624.4 x10_4/ul
same,Ret,3 h,8.5%
same,WBC,3 h,93.6 x10_2/uL
same,KIDNEY_L,3 h,0.9 g
same,KIDNEY_R,3 h,0.9 g
same,KIDNEY_TOTAL,3 h,1.9 g
same,LIVER,3 h,9.4 g
same,A/G,3 h,1.2
same,ALP,3 h,1650.4 IU/L
same,ALT,3 h,42.8 IU/L
same,AST,3 h,80.2 IU/L
same,BUN,3 h,13.8 mg/dL
same,CRE,3 h,0.1 mg/dL
same,Ca,3 h,10.8 mg/dL
same,Cl,3 h,107.6 meq/L
same,DBIL,3 h,0.002 mg/dL
same,GLC,3 h,180.2 mg/dL
same,IP,3 h,8.6 mg/dL
same,K,3 h,4.5 meq/L
same,LDH,3 h,254.2 IU/L
same,Na,3 h,142.4 meq/L
same,PL,3 h,134.8 mg/dL
same,RALB,3 h,3 g/dL
same,TBIL,3 h,0.018 mg/dL
same,TC,3 h,72.6 mg/dL
same,TG,3 h,70.2 mg/dL
same,TP,3 h,5.4 g/dL
same,gamma-GTP,3 h,1 IU/L
same,TERMINAL_BW,6 h,210.4 g
same,APTT,6 h,22.1 s
same,Bas,6 h,0%
same,Eos,6 h,0.8%
same,Fbg,6 h,309.8 mg/dL
same,Hb,6 h,13 g/dL
same,Ht,6 h,37.8%
same,Lym,6 h,77%
same,MCH,6 h,21.3 pg
same,MCHC,6 h,34.5%
same,MCV,6 h,61.7 fL
same,Mono,6 h,2.4%
same,Neu,6 h,18.8%
same,PT,6 h,15.9 s
same,Plat,6 h,116 x10_4/uL
same,RBC,6 h,612.6 x10_4/ul
same,Ret,6 h,8.4%
same,WBC,6 h,70 x10_2/uL
same,KIDNEY_L,6 h,0.9 g
same,KIDNEY_R,6 h,0.9 g
same,KIDNEY_TOTAL,6 h,1.9 g
same,LIVER,6 h,9 g
same,A/G,6 h,1.3
same,ALP,6 h,1379.6 IU/L
same,ALT,6 h,35.8 IU/L
same,AST,6 h,70.6 IU/L
same,BUN,6 h,11 mg/dL
same,CRE,6 h,0.1 mg/dL
same,Ca,6 h,10.6 mg/dL
same,Cl,6 h,107.4 meq/L
same,DBIL,6 h,0.004 mg/dL
same,GLC,6 h,181.4 mg/dL
same,IP,6 h,9.2 mg/dL
same,K,6 h,4.4 meq/L
same,LDH,6 h,189 IU/L
same,Na,6 h,141.4 meq/L
same,PL,6 h,146.8 mg/dL
same,RALB,6 h,3 g/dL
same,TBIL,6 h,0.028 mg/dL
same,TC,6 h,84.2 mg/dL
same,TG,6 h,74 mg/dL
same,TP,6 h,5.3 g/dL
same,gamma-GTP,6 h,1 IU/L
same,TERMINAL_BW,9 h,208.4 g
same,APTT,9 h,20.8 s
same,Bas,9 h,0%
same,Eos,9 h,0.4%
same,Fbg,9 h,309.8 mg/dL
same,Hb,9 h,13.3 g/dL
same,Ht,9 h,38.7%
same,Lym,9 h,83.4%
same,MCH,9 h,21.2 pg
same,MCHC,9 h,34.4%
same,MCV,9 h,61.8 fL
same,Mono,9 h,1.4%
same,Neu,9 h,14.2%
same,PT,9 h,15.8 s
same,Plat,9 h,122.4 x10_4/uL
same,RBC,9 h,627 x10_4/ul
same,Ret,9 h,8.1%
same,WBC,9 h,81 x10_2/uL
same,KIDNEY_L,9 h,0.9 g
same,KIDNEY_R,9 h,0.9 g
same,KIDNEY_TOTAL,9 h,1.8 g
same,LIVER,9 h,8.6 g
same,A/G,9 h,1.3
same,ALP,9 h,1432 IU/L
same,ALT,9 h,40.6 IU/L
same,AST,9 h,71.2 IU/L
same,BUN,9 h,12 mg/dL
same,CRE,9 h,0.1 mg/dL
same,Ca,9 h,10.6 mg/dL
same,Cl,9 h,108.2 meq/L
same,DBIL,9 h,0.012 mg/dL
same,GLC,9 h,182.6 mg/dL
same,IP,9 h,9.4 mg/dL
same,K,9 h,4.3 meq/L
same,LDH,9 h,242.6 IU/L
same,Na,9 h,143 meq/L
same,PL,9 h,144.8 mg/dL
same,RALB,9 h,3.1 g/dL
same,TBIL,9 h,0.018 mg/dL
same,TC,9 h,82.6 mg/dL
same,TG,9 h,84.2 mg/dL
same,TP,9 h,5.6 g/dL
same,gamma-GTP,9 h,1.2 IU/L
same,TERMINAL_BW,24 h,221.4 g
same,APTT,24 h,19.7 s
same,Bas,24 h,0%
same,Eos,24 h,1%
same,Fbg,24 h,309 mg/dL
same,Hb,24 h,13.2 g/dL
same,Ht,24 h,38.3%
same,Lym,24 h,79.4%
same,MCH,24 h,21.2 pg
same,MCHC,24 h,34.5%
same,MCV,24 h,61.5 fL
same,Mono,24 h,2.2%
same,Neu,24 h,16.8%
same,PT,24 h,15.8 s
same,Plat,24 h,122.9 x10_4/uL
same,RBC,24 h,622.4 x10_4/ul
same,Ret,24 h,8.5%
same,WBC,24 h,94.4 x10_2/uL
same,KIDNEY_L,24 h,0.9 g
same,KIDNEY_R,24 h,0.9 g
same,KIDNEY_TOTAL,24 h,1.9 g
same,LIVER,24 h,10.7 g
same,A/G,24 h,1.2
same,ALP,24 h,1498.2 IU/L
same,ALT,24 h,52.4 IU/L
same,AST,24 h,89.6 IU/L
same,BUN,24 h,18.4 mg/dL
same,CRE,24 h,0.1 mg/dL
same,Ca,24 h,11.1 mg/dL
same,Cl,24 h,107 meq/L
same,DBIL,24 h,0 mg/dL
same,GLC,24 h,181.8 mg/dL
same,IP,24 h,7.5 mg/dL
same,K,24 h,4.4 meq/L
same,LDH,24 h,271 IU/L
same,Na,24 h,142 meq/L
same,PL,24 h,163.4 mg/dL
same,RALB,24 h,3.1 g/dL
same,TBIL,24 h,0.002 mg/dL
same,TC,24 h,84.8 mg/dL
same,TG,24 h,117 mg/dL
same,TP,24 h,5.8 g/dL
same,gamma-GTP,24 h,1.2 IU/L
